For experiment [1], the system named is T. pyriformis. The experiment in a line: Protozoicidal effect, time for 100% kill. The class given is cell-based, Tetrahymena pyriformis. Particulars: observation time 24 hours. As to the method: (§1) […] protozoa had stopped moving. The observation time was 24 hours. In order to determine whether the protozoa had been killed rather than only temporarily inactivated, the organisms in hop solution were centrifuged, the supernatant removed, and the protozoa placed into fresh medium in which hop was not present. When there was no revival of the organisms, it was concluded that they were dead rather than only temporarily inactivated.

In experiment [2] the test system is Chaos sp. The experiment in a line: Protozoicidal effect, time for 100% kill. The class given is cell-based. Conditions: for Time of death (100% kill): observation time 24 hours. As to the method: (§2) The protozoicidal effect of various hop compounds was determined by preparing different concentrations of hop solution in 10 ml. of medium. The solution was poured into 6×4 multiwell dishes—3424 Mark 2 (Coster, Cambridge, Mass.). An average of 10 microorganisms was added to each well and observed under the stereomicroscope. Results were expressed as the time in minutes for a 100% kill, which was presumed when all of the
(§3) protozoa had stopped moving. The observation time was 24 hours.
(§4) In order to determine whether the protozoa had been killed rather than only temporarily inactivated, the organisms in hop solution were centrifuged, the supernatant removed, and the protozoa placed into fresh medium in which hop was not present. When there was no revival of the organisms, it was concluded that they were dead rather than only temporarily inactivated.
(§5) Tests were conducted to determine the effectiveness of the alpha and beta resins against amoebae.

Experiment [3] relates to Amoeba proteus. Description: Protozoicidal effect, time for 100% kill. It is filed as cell-based. Conditions: 500 μg/ml, observation time 24 hours. As to the method: as §2, §3, §4, §5
Experiment [4] relates to P. papillata. The experiment in a line: Protozoicidal effect, time for 100% kill. The class given is cell-based, Polytomella papillata. Particulars: observation time 24 hours. As to the method: as §1
Experiment [5] concerns Euglena sp. The experiment in a line: Protozoicidal effect, time for 100% kill. The class given is cell-based. Conditions: observation time 24 hours. As to the method:
as §1

For experiment [6], the system named is P. caudatum. Description: Protozoicidal effect, time for 100% kill. Particulars: for Time of death (100% kill): observation time 24 hours. The class given is cell-based, Paramecium caudatum. As to the method:
as §1

In experiment [7] the test system is P. caudatum. The experiment in a line: Co-action of hop resins with carbon dioxide, time for 100% kill. It is filed as cell-based, Paramecium caudatum. Conditions: carbon dioxide bubbled into the medium for 30 seconds before inoculation. As to the method:
(§6) Different concentrations of the alpha and beta resins of hop were prepared in 10 ml. of medium, as identified in Table 1, and poured into plastic tissue culture flasks of 25 cm. growth area with screw caps, obtained from Falcon, Oxnard, Calif. Carbon dioxide was then bubbled through the medium in the bottles at a rapid rate for a period of 30 seconds. An average of ten organisms were added to each flask and examined directly under the stereomicroscope. The times that were taken for a 100% kill of the organisms, that is, when all of the organisms ceased any motion, were recorded in minutes and are tabulated in Tables 7 and 8.

The test system of experiment [8] is Chaos sp. The experiment in a line: Co-action of hop resins with carbon dioxide. It is filed as cell-based. On the procedure:
as §6
The same tests but at greater resin concentrations were carried out on an amoeba strain, Chaos sp., and the results recorded in Table 8.

Setting [9] is: 0.2 μg/ml, listed as beta resin.
Where [10] appears, read: 0.5 μg/ml, listed as beta resin.

Where only a bound is given, the exact number is not on record here.

`CC(C)=CCC1=C(O)C(C(=O)CC(C)C)=C(O)C(CC=C(C)C)(CC=C(C)C)C1=O` [Beta Resin, lupulone]: the “Time of death (100% kill)” value was “not sensitive” in experiment [1] (0.05 μg/ml); 15 min in experiment [1] (0.2 μg/ml); ≤ 15 min in experiment [1] (setting [9]); 3 min in experiment [1] (0.5 μg/ml); “five” in experiment [1] (setting [10]); 1.5 min in experiment [1] (1.0 μg/ml). The “Time of death (100% kill)” value in experiment [1] (2.0 μg/ml) was 1.0 min; in experiment [1] (2.0 μg/ml, listed as beta resin), “two”; in experiment [2] (10 μg/ml), “neither the alpha nor beta resins were effective alone”; in experiment [2] (50 μg/ml), 60 min; in experiment [2] (50 μg/ml, listed as beta resin), “effective per se”; in experiment [2] (100 μg/ml), 30 min. The “Time of death (100% kill)” value was “all were effective” in experiment [2] (100 μg/ml, listed as beta resin); 30 min in experiment [2] (200 μg/ml); 25 min in experiment [2] (500 μg/ml); 180 min in experiment [3]; “not sensitive” in experiment [4] (0.05 μg/ml); 40 min in experiment [4] (0.2 μg/ml). Further, the “Time of death (100% kill)” value is ≤ 40 min in experiment [4] (setting [9]); 5 min in experiment [4] (0.5 μg/ml); 3.5 min in experiment [4] (1.0 μg/ml); 2.0 min in experiment [4] (2.0 μg/ml); “not sensitive” in experiment [5] (0.05 μg/ml); 2.5 min in experiment [5] (0.5 μg/ml). The “Time of death (100% kill)” value in experiment [5] (1.0 μg/ml) was 1.5 min; in experiment [5] (2.0 μg/ml) it was 1.2 min; in experiment [6] (0.05 μg/ml), “not sensitive”; in experiment [6] (0.1 μg/ml), 60 min; in experiment [6] (0.2 μg/ml) it was 5 min; in experiment [6] (setting [9]), ≤ 5 min. Besides, the “Time of death (100% kill)” value in experiment [6] (0.5 μg/ml) was 3.5 min; in experiment [6] (setting [10]) it was “five”; in experiment [6] (1.0 μg/ml), 3.0 min; in experiment [6] (2.0 μg/ml), 2.0 min. In addition, in experiment [6] (0.1 ug/ml), the “Time for death to occur” value is “one”. For the same compound, the “Time of death (100% kill), resin + CO2” value amounted to 14 min in experiment [7] (resin 0.05 μg/ml) and 5 min in experiment [7] (resin 0.1 μg/ml). Also, the “Effectiveness in killing with prior carbon dioxide treatment” value in experiment [8] (resin 10 ug/ml, prior carbon dioxide treatment) is on record as “both were effective”; in experiment [8] (resin 50 ug/ml, carbon dioxide pretreatment) it was “both were effective with carbon dioxide pretreatment”; in experiment [8] (resin 100 ug/ml, carbon dioxide pretreatment) it was “all were most effective with pretreatment”.
Take `O=C=O` [Carbon dioxide, carbon dioxide]: the “Time of death with carbon dioxide, without addition of hop” value in experiment [7] (no hop) is “*Carbon dioxide had been bubbled into the medium for 30 seconds previous to inoculation and death without addition of hop occurred between 40-50 minutes”.
On to `COc1cc(O)c(CC=C(C)C)c(O)c1C(=O)/C=C/c1ccc(O)cc1` [Xanthohumol, xanthohumol], for which the “Concentration effective in killing” value in experiment [2] was ≥ 5 µg/mL. Moreover, the “Time of death (100% kill)” value in experiment [2] (5.0 μg/ml) is 15 min; in experiment [2] (10 μg/ml), 11 min; in experiment [6] (0.05 μg/ml), 10 min; in experiment [6] (0.05 μg/ml, listed as xanthohumol), “ten”; in experiment [6] (0.1 μg/ml), 5 min; in experiment [6] (1.0 μg/ml), 2.5 min.

The record behind these values is US6423317B1, “Method of killing protozoa” (S.S. Steiner, Inc., priority 2001, dated 2002).
